According to paper PMC10343660, “Mechanochemical Studies on Coupling of Hydrazines and Hydrazine Amides with Phenolic and Furanyl Aldehydes—Hydrazones with Antileishmanial and Antibacterial Activities” (Molecules, 2023):
In brackets after ≈: the same amount, converted by molar mass. Read-outs that look alike come from different tables or passages of the source. Marks after values point to notes of the source that are not given here.

Columns and labels:
[1] = test system: E. coli ATCC25922; assay: MIC determination on E. coli ATCC25922 (microdilution, resazurin); type: cell-based, Escherichia coli
[2] = test system: S. aureus ATCC29213; assay: MIC determination on S. aureus ATCC29213; type: cell-based, Staphylococcus aureus; details: value in parentheses
[3] = test system: S. aureus ATCC25923; assay: MIC determination on S. aureus ATCC25923 (microdilution, resazurin); type: cell-based, Staphylococcus aureus
[4] = test system: Mycobacterium tuberculosis H37Rv; assay: MIC determination for Mycobacterium tuberculosis H37Rv (REMA); type: cell-based; details: for MIC: read-out: M. tuberculosis H37Rv MIC; for MIC90: read-out: minimum inhibitory concentration (MIC90) on M. tuberculosis H37Rv
[5] = test system: L. donovani intramacrophage amastigotes; assay: In vitro antileishmanial evaluation on intramacrophage amastigotes (RAW 264.7 infected, SYBR Green); type: cell-based, Leishmania donovani; details: for SI (Selectivity Index): CC50 (macrophage RAW 264.7)/IC50 (intramacrophage form of L. donovani); for IC50: read-out: L. donovani Intramacrophage Amastigote IC50 ± SD
Method: In vitro antileishmanial evaluation on intramacrophage amastigotes. RAW 264.7 macrophages were infected with L. donovani axenic amastigotes according to a ratio of 10 parasites per macrophage. […] The in vitro treatment was applied 24 h post-infection, and the treatment duration was 48 h. […] The activity of the compounds is expressed as IC50, calculated using the ICEstimator version 1.2 software. Miltefosine was used as the reference drug.

[6] = test system: L. donovani axenic amastigotes (LV9); assay: In vitro antileishmanial evaluation on L. donovani axenic amastigotes (SYBR Green); type: cell-based, Leishmania donovani; details: read-out: L. donovani Axenic Amastigote IC50 ± SD
Method: L. donovani (MHOM/ET/67/HU3, also called LV9) promastigotes and axenic amastigotes were maintained according to the protocols previously described.
In vitro antileishmanial evaluation on L. donovani axenic amastigotes. This evaluation was performed using the SYBR Green method as previously described. IC50 values were calculated using the ICEstimator version 1.2 software (http://www.antimalarial-icestimator.net/runregression1.2.htm, accessed on 5 April 2023). Miltefosine was used as the reference drug.

[7] = Escherichia coli, ATCC25922, value outside parentheses, read-out: E. coli ATCC25922 MIC
[8] = Staphylococcus aureus, ATCC29213
[9] = Staphylococcus aureus, ATCC25923, value outside parentheses, read-out: S. aureus ATCC25923 MIC
[10] = Mycobacterium tuberculosis, H37RV, 168 h, REMA, 7 days
[11] = Mycobacterium tuberculosis, H37RV, range for the active compounds
[12] = Leishmania donovani, RAW264.7, RAW 264.7 macrophages infected, treatment 48 h
[13] = Leishmania donovani, LV9 axenic amastigote forms
[14] = value outside parentheses, read-out: E. coli ATCC25922 MIC
[15] = value outside parentheses, read-out: S. aureus ATCC25923 MIC
[16] = Escherichia coli, ATCC25922, 24 h, value outside parentheses, read-out: E. coli ATCC25922 MIC
[17] = Staphylococcus aureus, ATCC25923, 24 h, value outside parentheses, read-out: S. aureus ATCC25923 MIC

Row | Compound | MIC [1, 7] [µM] | MIC [3, 9] [µM] | MIC [4, 10] [µM] | SI (Selectivity Index) [5] | IC50 [5, 12] [µM] | IC50 [6, 13] [µM] | melting point [°C] | other results
1 | O=C(O)c1cn(C2CC2)c2cc(N3CCNCC3)c(F)cc2c1=O [Ciprofloxacin, reference compound] | 0.75 (≈ 0.249 µg/mL) | 3 (≈ 0.994 µg/mL) | – | – | – | – | – | MIC [2, 8]: 5 µM (≈ 1.66 µg/mL)
2 | COc1cc(/C=N/NC(=O)c2ccncc2)ccc1O [Compound 1, N′-[(E)-(4-Hydroxy-3-methoxyphenyl)methylene]isonicotinohydrazide] | > 944 | > 944 | 0.6 (≈ 0.163 µg/mL) | >2.5 | 40.2 ± 3.1 | 24.9 ± 2.9 | – | MIC90 [4, 11]: 0.6 to 7.4 µM (≈ 0.163 to 2.01 µg/mL)
3 | COc1cc(/C=N/NC(=O)c2ccc(O)cc2)ccc1O [Compound 2, 4-hydroxy-N′-[(E)-(4-hydroxy-3-methoxyphenyl)methylidene]benzohydrazide] | > 894 | > 894 | > 100 | >17 | 5.9 ± 0.9 | 2.1 ± 0.1 | – | –
4 | O=C(N/N=C/C=C/c1ccc([N+](=O)[O-])o1)c1ccncc1 [Compound 3, N′-[(1E,2E)-3-(5-Nitro-2-furyl)-2-propen-1-ylidene]isonicotinohydrazide] | 28 (≈ 8.01 µg/mL) | 1.75 (≈ 0.501 µg/mL) | 1 (≈ 0.286 µg/mL) | >200 | 0.5 ± 0.1 | 0.6 ± 0.1 | 252.1 to 254 | MIC90 [4, 11]: 0.6 to 7.4 µM (≈ 0.172 to 2.12 µg/mL); MIC [1, 14]: 28 µM (≈ 8.01 µg/mL); MIC [2, 8]: 7 µM (≈ 2 µg/mL); MIC [2]: 7 µM (≈ 2 µg/mL); MIC [3, 15]: 1.75 µM (≈ 0.501 µg/mL)
5 | O=[N+]([O-])c1ccc(/C=C/C=N/NN2Cc3ccccc3C=N2)o1 [Compound 4, 2-{(2E)-2-[(2E)-3-(5-Nitro-2-furyl)-2-propen-1-ylidene]hydrazino}phthalazine] | > 828 | > 828 | 129 (≈ 40.2 µg/mL) | >166 | 0.6 ± 0.1 | 1.9 ± 0.3 | – | –
6 | O=[N+]([O-])c1ccc(/C=C/C=N/Nc2nc3ccccc3s2)o1 [Compound 5, 2-{(2E)-2-[(2E)-3-(5-Nitro-2-furyl)-2-propen-1-ylidene]hydrazino}-1,3-benzothiazole] | > 814 | > 814 | 1 (≈ 0.314 µg/mL) | >8 | 12.4 ± 1.2 | 2.3 ± 0.3 | 243.1 | MIC90 [4, 11]: 0.6 to 7.4 µM (≈ 0.189 to 2.33 µg/mL)
7 | O=C1CSC(=S)N1/N=C/C=C/c1ccc([N+](=O)[O-])o1 [Compound 6, 3-{(E)-[(2E)-3-(5-Nitro-2-furyl)-2-propen-1-ylidene]amino}-2-thioxo-1,3-thiazolidin-4-one] | > 861 | 13 (≈ 3.87 µg/mL) | 4.2 (≈ 1.25 µg/mL) | >125 | 0.8 ± 0.1 | 0.7 ± 0.1 | – | MIC90 [4, 11]: 0.6 to 7.4 µM (≈ 0.178 to 2.2 µg/mL); MIC [2, 8]: 7 µM (≈ 2.08 µg/mL); MIC [2]: 7 µM (≈ 2.08 µg/mL); MIC [3, 15]: 13 µM (≈ 3.87 µg/mL)
8 | O=C(N/N=C/c1ccc(-c2ccc([N+](=O)[O-])cc2)o1)c1ccncc1 [Compound 8, N′-{(E)-[5-(4-Nitrophenyl)-2-furyl]methylene}isonicotinohydrazide] | – | – | – | >2 | – | – | – | MIC ([4]; Mycobacterium tuberculosis, H37RV, 168 h): 0.9 µM (≈ 0.303 µg/mL); MIC90 ([4]; Mycobacterium tuberculosis, H37RV): 0.6 to 7.4 µM (≈ 0.202 to 2.49 µg/mL); MIC ([1]; Escherichia coli, ATCC25922, read-out: E. coli ATCC25922 MIC): > 761 µM; MIC ([3]; Staphylococcus aureus, ATCC25923, read-out: S. aureus ATCC25923 MIC): > 761 µM; IC50 ([5]; Leishmania donovani, RAW264.7, 48 h): 36.2 ± 1.4 µM; IC50 ([6]; Leishmania donovani): 16.2 ± 1.2 µM
9 | O=[N+]([O-])c1ccc(-c2ccc(/C=N/Nc3nncc4ccccc34)o2)cc1 [Compound 9, 1-[(2E)-2-{[5-(4-Nitrophenyl)-2-furyl]methylene}hydrazino]phthalazine] | > 711 | > 711 | > 100 | >333 | 0.3 ± 0.1 | 0.2 ± 0.1 | 239.5 to 241.5 | –
10 | O=[N+]([O-])c1ccc(-c2ccc(/C=N/Nc3nc4ccccc4s3)o2)cc1 [Compound 10, 2-[(2E)-2-{[5-(4-Nitrophenyl)-2-furyl]methylene}hydrazino]-1,3-benzothiazole] | > 703 | > 703 | > 100 | – | 5.8 ± 1 | 0.7 ± 0.1 | 271.9 | –
11 | O=C1CSC(=S)N1/N=C/c1ccc(-c2ccc([N+](=O)[O-])cc2)o1 [Compound 11, 3-[(E)-{[5-(4-Nitrophenyl)-2-furyl]methylene}amino]-2-thioxo-1,3-thiazolidin-4-one] | > 737 | > 737 | > 100 | – | > 100 | 5.2 ± 0.3 | 175 | –
12 | O=[N+]([O-])c1ccc(-c2ccc(/C=N/Nc3ccc(Br)cn3)o2)cc1 [Compound 13, 5-Bromo-2-[(2E)-2-{[5-(4-nitrophenyl)furan-2-yl]methylidene}hydrazin-1-yl]pyridine] | > 661 | > 661 | > 100 | – | > 100 | 54.3 ± 4.5 | – | –
13 | O=[N+]([O-])c1ccc(-c2ccc(/C=N/Nc3nccc(C(F)(F)F)n3)o2)cc1 [Compound 14, 2-[(2E)-2-{[5-(4-Nitrophenyl)furan-2-yl]methylidene}hydrazin-1-yl]-4-(trifluoromethyl) pyrimidine] | – | – | > 100 | >8 | 11.9 ± 1.1 | 2.9 ± 0.2 | 212.4 to 214.2 | MIC [1, 16]: > 669 µM; MIC [3, 17]: > 669 µM
14 | O=[N+]([O-])c1ccc(-c2ccc(/C=N/Nc3cnccn3)o2)cc1 [Compound 15, 2-[(2E)-2-{[5-(4-nitrophenyl)furan-2-yl]methylidene}hydrazin-1-yl]pyrazine] | – | – | > 100 | >4 | 23.3 ± 3.1 | 9.9 ± 0.8 | 272.2 to 274 | MIC [1, 16]: > 678 µM; MIC [3, 17]: > 678 µM
15 | O=[N+]([O-])c1ccc(-c2ccc(/C=N/Nc3nc4ccc(Cl)cc4o3)o2)cc1 [Compound 16, 6-chloro-2-[(2E)-2-{[5-(4-nitrophenyl)furan-2-yl]methylidene}hydrazin-1-yl]-1,3-benzoxazole] | – | – | > 100 | – | > 100 | > 100 | 190.9 | MIC [1, 16]: > 828 µM; MIC [3, 17]: > 828 µM
16 | O=C(N/N=C/c1ccc(-c2ccc([N+](=O)[O-])cc2)o1)OCc1ccccc1 [Compound 17, N′-[(E)-[5-(4-nitrophenyl)furan-2-yl]methylidene](benzyloxy)carbohydrazide] | – | – | – | – | – | – | – | MIC ([4]; REMA, 7 days): >100 µM; MIC [1, 14]: >701 µM; MIC [3, 15]: >701 µM; IC50 ([5]; RAW 264.7 macrophages infected, treatment 48 h): 32.4 ± 2.8 µM; IC50 ([6]; LV9 axenic amastigote forms): 12.2 ± 1.6 µM
17 | NNC(=O)c1ccncc1 [Isoniazid, reference compound] | – | – | 0.4 (≈ 0.0549 µg/mL) | – | – | – | – | –
18 | CCCCCCCCCCCCCCCCOP(=O)([O-])OCC[N+](C)(C)C [Miltefosine, reference compound] | – | – | – | 9 ^a | 2.2 ± 0.3 | 1.5 ± 0.3 | – | –
19 | [H]/N=C(/N)N[C@H]1[C@H](O)[C@@H](O)[C@H](O[C@@H]2O[C@@H](C)[C@](O)(C=O)[C@H]2O[C@@H]2O[C@@H](CO)[C@H](O)[C@@H](O)[C@@H]2NC)[C@@H](N/C(N)=N\[H])[C@@H]1O [Streptomycin, reference compound] | – | – | 0.4 (≈ 0.233 µg/mL) | – | – | – | – | –
